# According to ChEMBL document CHEMBL1201862, “PubChem BioAssay data set” (2004):
# Active and inactive are the calls of the source.
# Columns and labels:
# Bcl-2-related protein A1 = target: T1, Bcl-2-related protein A1 (Mus musculus, UniProt Q07440); format: functional;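 further: confirmatory dose–response counterscreen on Bfl-1, used to check hits from a UBC13 polyubiquitin inhibitor campaign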
# T1 sequence (Q07440 whole entry): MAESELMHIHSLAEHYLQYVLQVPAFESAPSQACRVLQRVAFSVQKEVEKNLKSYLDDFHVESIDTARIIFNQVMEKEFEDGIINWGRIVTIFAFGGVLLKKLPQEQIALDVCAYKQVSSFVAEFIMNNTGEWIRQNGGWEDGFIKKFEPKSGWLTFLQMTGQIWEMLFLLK
# [1] = target: T2, Ubiquitin-conjugating enzyme E2 N (Homo sapiens, UniProt P61088); format: functional
# T2 sequence (P61088 whole entry): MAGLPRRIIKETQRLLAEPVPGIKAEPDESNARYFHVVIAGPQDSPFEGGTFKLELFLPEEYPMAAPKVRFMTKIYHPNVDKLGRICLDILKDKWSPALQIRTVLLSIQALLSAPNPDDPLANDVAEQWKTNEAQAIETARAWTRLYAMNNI
# [2] = target: T2, Ubiquitin-conjugating enzyme E2 N; format: functional; remark: listed apart in the source
# [3] = target: Microphthalmia-associated transcription factor (Homo sapiens, UniProt O75030); assay: reducers of TRPM1 reporter luminescence, concentration series – cell-based, SK-MEL-5, cherry-picked, set 3, MITF inhibitor project, dose response (AID 493073); format: functional;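 further: SK-MEL-5 melanoma cells with luciferase driven by the MITF target TRPM1 promoter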
# [4] = Vero E6 cell cytotoxicity, dose response, cytotoxicity control for non-replicating M. tuberculosis project, secondary assay (AID 492998); format: functional, VeroE6; settings: Vero C1008
# [5] = THP-1 cell cytotoxicity, dose response, cytotoxicity control for non-replicating M. tuberculosis project (AID 489025); format: functional
# cells [6] = format: functional
# [7] = target: T3, Replicative DNA helicase DnaB (Mycobacterium tuberculosis, UniProt P9WMR3); assay: DnaB intein splicing inhibitors, dose response, biochemical, cell-free fluorescence (AID 449749); format: functional
# T3 sequence (P9WMR3 whole entry): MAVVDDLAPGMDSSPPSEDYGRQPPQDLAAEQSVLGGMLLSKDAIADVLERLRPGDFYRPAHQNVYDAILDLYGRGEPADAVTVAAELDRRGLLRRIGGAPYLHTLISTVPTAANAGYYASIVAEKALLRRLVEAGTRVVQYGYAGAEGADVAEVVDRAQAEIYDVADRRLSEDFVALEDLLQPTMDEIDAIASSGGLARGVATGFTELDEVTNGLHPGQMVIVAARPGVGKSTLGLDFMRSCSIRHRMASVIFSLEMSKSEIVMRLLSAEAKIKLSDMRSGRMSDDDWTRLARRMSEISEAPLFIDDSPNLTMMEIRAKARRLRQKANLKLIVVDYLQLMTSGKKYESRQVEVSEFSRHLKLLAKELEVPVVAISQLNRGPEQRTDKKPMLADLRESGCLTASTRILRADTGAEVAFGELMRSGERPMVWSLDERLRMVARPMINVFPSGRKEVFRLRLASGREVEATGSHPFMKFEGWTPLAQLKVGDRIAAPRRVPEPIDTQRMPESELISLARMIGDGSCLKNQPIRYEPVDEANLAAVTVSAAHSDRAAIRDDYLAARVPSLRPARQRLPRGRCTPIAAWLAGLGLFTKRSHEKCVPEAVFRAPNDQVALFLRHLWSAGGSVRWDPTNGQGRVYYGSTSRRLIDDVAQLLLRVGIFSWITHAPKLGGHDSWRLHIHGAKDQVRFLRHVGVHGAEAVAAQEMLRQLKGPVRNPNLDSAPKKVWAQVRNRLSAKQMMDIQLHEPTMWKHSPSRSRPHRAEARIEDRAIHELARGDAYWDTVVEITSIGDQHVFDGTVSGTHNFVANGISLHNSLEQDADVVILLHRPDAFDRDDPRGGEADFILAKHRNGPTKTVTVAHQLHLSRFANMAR
# [8] = target: G-protein coupled receptor 55 (Homo sapiens, UniProt Q9Y2T6); assay: blockers of GPR55 signalling, imaged – imaging, image-based, counter-screen for GPR35 antagonist project, SAR follow-up (AID 2397); format: functional
# Protein RecA = target: T4, Protein RecA (Mycobacterium tuberculosis, UniProt P9WHJ3); assay: Fluorescence Cell-Free Homogeneous Dose Retest to Identify Inhibitors of RecA-Intein Splicing Activity. [Related pubchem assays (depositor defined):AID2097, AID2223, AID489010, AID492950]; format: functional
# T4 sequence (P9WHJ3 whole entry): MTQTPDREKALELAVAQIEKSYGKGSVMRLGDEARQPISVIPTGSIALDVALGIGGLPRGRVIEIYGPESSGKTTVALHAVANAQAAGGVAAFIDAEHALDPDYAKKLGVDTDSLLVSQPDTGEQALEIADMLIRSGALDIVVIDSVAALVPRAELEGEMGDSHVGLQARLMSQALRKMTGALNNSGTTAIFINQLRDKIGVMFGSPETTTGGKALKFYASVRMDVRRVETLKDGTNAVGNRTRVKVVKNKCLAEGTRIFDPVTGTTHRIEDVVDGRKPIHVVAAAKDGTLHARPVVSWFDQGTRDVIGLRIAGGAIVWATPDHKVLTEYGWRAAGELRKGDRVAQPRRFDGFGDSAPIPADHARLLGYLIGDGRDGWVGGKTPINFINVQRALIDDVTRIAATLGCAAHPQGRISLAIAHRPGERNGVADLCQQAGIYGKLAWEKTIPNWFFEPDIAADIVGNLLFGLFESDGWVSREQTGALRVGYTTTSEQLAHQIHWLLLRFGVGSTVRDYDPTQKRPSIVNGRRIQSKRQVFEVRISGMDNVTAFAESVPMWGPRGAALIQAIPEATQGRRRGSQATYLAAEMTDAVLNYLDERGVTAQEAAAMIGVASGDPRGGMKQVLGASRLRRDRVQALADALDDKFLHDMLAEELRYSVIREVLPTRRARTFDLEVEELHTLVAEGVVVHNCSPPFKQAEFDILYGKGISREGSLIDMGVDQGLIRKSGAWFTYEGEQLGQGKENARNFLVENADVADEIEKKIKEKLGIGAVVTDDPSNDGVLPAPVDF
# [9] = target: Lysine-specific demethylase 4C (Homo sapiens, UniProt Q9H3R0); assay: inhibition of JMJD2C H3K9me3 demethylation – biochemical, DELFIA europium, cherry-picked samples, dose response (AID 488835); format: functional
# cells [10] = format: functional, cell-based
# cells [11] = format: functional, cell-based; remark: listed apart in the source
# Troponin, cardiac muscle = Troponin, cardiac muscle (Homo sapiens, UniProt P19429+P45379+P63316); assay: Fluorescence-based biochemical high throughput dose response assay for activators of the calcium sensitivity of cardiac Regulated Thin Filaments (RTF). [Related pubchem assays (depositor defined):AID493008, AID493018, AID504382, AID504383]; format: protein-complex assay
# [12] = Trypanosoma cruzi growth suppression in host cells – NIH3T3 host cells, beta-gal luminescence, confirmation (AID 2044); format: functional, cell-based;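 further: intracellular parasites grown in NIH/3T3 mouse fibroblasts as host cells; luminescent beta-galactosidase reporter signal from transgenic T. cruzi replicating inside host cells; inhibitors lower the luminescence signal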
# [13] = decrease of insulin promoter-GFP reporter – imaging, high-content screening, mouse beta cells (AID 1628); format: functional; settings: MIN6
# [14] = MIN6 cell viability loss – mouse insulinoma, cytotoxicity control, dose response (AID 2122); format: functional;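 further: confirmatory high-throughput counterscreen run to flag cytotoxic compounds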
structure (smiles),measurement,setting,value
COc1ccccc1NC(=O)COc1ccc(C(=O)NCc2ccccc2)cc1OC,IC50,Bcl-2-related protein A1,> 20 µM (inactive)
same,IC50,[1],13 µM (active)
same,IC50,[2],> 20 µM (inactive)
Cc1ccc(C(=O)N/N=C\c2ccc([N+](=O)[O-])s2)cn1,AC50,[3],2.95 µM (active)
same,CC50,[4],13.1 µM (active)
same,CC50,[5],26.2 µM (active)
same,IC50,cells [6],4.87 µM (active)
O=C(CCCN1C(=O)/C(=C\c2ccccc2)SC1=S)Nc1ccc(O)cc1,AC50,[7],39 µM (active)
same,IC50,[8],> 32 µM (inactive)
same,EC50,Protein RecA,27.8 µM (active)
CCN(C[C@H]1N[C@@](CC)(C(=O)OC)[C@H]2C(=O)N(Cc3ccccc3)C(=O)[C@@H]12)S(=O)(=O)c1ccc(C(C)(C)C)cc1,AC50,[9],42.6 µM (active)
COc1cc(C(=O)Oc2ccccc2/C=N/NC(=O)c2ccc(Cl)cc2)cc(OC)c1OC,EC50,cells [10],> 350 µM (not active)
same,EC50,cells [11],9.29 µM (active)
same,EC50,"Troponin, cardiac muscle",> 71.5 µM (inactive)
same,EC50,[12],1.31 µM (active)
same,IC50,[13],2.12 µM (active)
same,IC50,[14],1.99 µM (active)
